The text below walks through data of ChEMBL document CHEMBL1201862, “PubChem BioAssay data set” (2004).

Some test systems named below: A549; CCRF-CEM; EKVX; HL-60; HOP-62; Hs-578T; MDA-MB-435; NCI-H23; NCI-H460; NCI/ADR-RES; OVCAR-3; SN12C; SNB-75; SR; T47D; TK-10; UACC-257; K562; U-251.
What all share (experiment): NCI-60 cell line screen, 48 h

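Protocol summary: plate cells (96-well), add compound at 5 concentrations, incubate 48 h, interpolate endpoints linearly. The concentration for 50% growth inhibition is given as GI50.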 Activity calls are given as the source filed them. No stated cut-off is given here; in the data, active = GI50 up to about 1.1 µM and inactive = higher. Non-standard residues stand in square brackets, D forms with d. Residues, ends and D or L forms follow the SMILES beside them. *: point of attachment. Ac5c = NC1(C(=O)O)CCCC1; Boc = CC(C)(C)OC(=O)*; tBu = CC(C)(C)*

Regarding `C[C@@H]1OC2(O)[C@@H]3CCCN3C(=O)N(Cc3ccccc3)N2C1=O` (stereo partly drawn), the GI50 with A549, with CCRF-CEM, with EKVX, in the assay on HL-60, in the assay with HOP-62 and with Hs-578T was > 100 µM (inactive) in each case. Further, the GI50 with MDA-MB-435, in the assay with NCI-H23, in the assay with NCI-H460, in the assay with NCI/ADR-RES, in the assay with OVCAR-3 and in the assay with SN12C was > 100 µM (inactive) throughout. Besides, the GI50 in the assay on SNB-75 is 0.331 µM (active); in the assay on SR, > 100 µM (inactive); in the assay on T47D, > 100 µM (inactive); with TK-10 it was > 100 µM (inactive); in the assay with UACC-257 it was > 100 µM (inactive).

With `N#Cc1c(O)nc2nn3c4ccc5ccccc5c4nnc3c2c1-c1ccc(Cl)cc1`, the GI50 in the assay on A549 is 4.57 µM (inactive); in the assay with CCRF-CEM, 1.56 µM (inactive); in the assay with EKVX, 3.93 µM (inactive); in the assay on HL-60, 0.421 µM (active); with HOP-62, 3.16 µM (inactive); with Hs-578T, 2.76 µM (inactive). Further, the GI50 with K562 was 4.16 µM (inactive); with MDA-MB-435, 3.3 µM (inactive); in the assay with NCI-H23, 1.97 µM (inactive); in the assay on NCI-H460, 2.24 µM (inactive); with NCI/ADR-RES, 4.55 µM (inactive); in the assay on OVCAR-3 it was 1.69 µM (inactive). In addition, the GI50 is 3.34 µM (inactive) in the assay on SN12C; 0.675 µM (active) in the assay with SR; 0.313 µM (active) in the assay with T47D; 5.89 µM (inactive) with TK-10; 2.12 µM (inactive) with U-251; 3.58 µM (inactive) with UACC-257.

`CC1(C)O[C@H]2OC(CO)C(N=[N+]=[N-])[C@H]2O1` (stereo partly drawn): the GI50 in the assay with A549, with CCRF-CEM, in the assay on EKVX, with HL-60, in the assay with HOP-62 and with Hs-578T was > 100 µM (inactive) in each case. Also, the GI50 in the assay on MDA-MB-435, with NCI-H23, in the assay on NCI-H460, in the assay with NCI/ADR-RES, in the assay on OVCAR-3 and with SN12C was > 100 µM (inactive) in each case. The GI50 in the assay on SNB-75, in the assay on SR, with T47D, with TK-10, with U-251 and with UACC-257 was > 100 µM (inactive) in each case.

For the compound `CC#Cc1cc2c(cc1O)CC[C@@H]1[C@@H]2CC[C@]2(C)[C@@H](O)CC[C@@H]12`, the GI50 in the assay on A549 was 2.01 µM (inactive); in the assay with CCRF-CEM, 0.684 µM (active); in the assay on EKVX, 2.49 µM (inactive); with HL-60 it was 0.311 µM (active); with HOP-62, 1.29 µM (inactive); with Hs-578T, 1.11 µM (active). The GI50 in the assay with K562 is 0.344 µM (active); in the assay on MDA-MB-435, 0.134 µM (active); in the assay with NCI-H23, 1.54 µM (inactive); in the assay with NCI-H460, 0.475 µM (active); in the assay with NCI/ADR-RES it was 0.885 µM (active); with SN12C, 6.15 µM (inactive). Besides, the GI50 with SNB-75 was 1.4 µM (inactive); in the assay on SR it was 0.288 µM (active); with T47D it was 3.15 µM (inactive); in the assay on TK-10, 19.9 µM (inactive); in the assay with U-251 it was 0.748 µM (active); with UACC-257, 1.76 µM (inactive).

On to `C/C=C/COc1cc(NC(=S)c2ccoc2C)ccc1OC`, for which the GI50 in the assay on A549 was > 100 µM (inactive); in the assay with CCRF-CEM it was > 100 µM (inactive); in the assay on EKVX, 49.8 µM (inactive); in the assay with HL-60, 60.3 µM (inactive); in the assay with HOP-62, 34.7 µM (inactive); in the assay with Hs-578T, 34 µM (inactive). Moreover, the GI50 with MDA-MB-435 was > 100 µM (inactive); in the assay on NCI-H23 it was > 100 µM (inactive); with NCI/ADR-RES, 39.4 µM (inactive); with OVCAR-3 it was 50.2 µM (inactive); in the assay with SN12C, 62.1 µM (inactive); with SNB-75, 27.7 µM (inactive). Also, the GI50 with SR is > 100 µM (inactive); in the assay on T47D, 43.3 µM (inactive); with TK-10, 97.1 µM (inactive); in the assay with U-251, 51.4 µM (inactive); in the assay on UACC-257, > 100 µM (inactive).

As for `C/C=C1/CC(C)C(C)(O)C(=O)OCC2C(O)CN3CCC(OC1=O)C23` (stereo not drawn), the GI50 in the assay on A549, in the assay with CCRF-CEM, with EKVX, in the assay with HL-60, in the assay on HOP-62 and with Hs-578T was > 100 µM (inactive) each time. The GI50 in the assay on K562, in the assay with MDA-MB-435, with NCI-H23, in the assay on NCI-H460, in the assay with NCI/ADR-RES and in the assay on SN12C was > 100 µM (inactive) in each case. In addition, the GI50 with SNB-75, with SR, in the assay with T47D, with TK-10, with U-251 and in the assay on UACC-257 was > 100 µM (inactive) in each case.

Turning to `CCOC(=O)c1cc2cc3c4c(c2oc1=O)CCCN4CCC3`, the GI50 was 21.5 µM (inactive) with A549; 29.4 µM (inactive) in the assay on CCRF-CEM; 12 µM (inactive) with EKVX; 16.9 µM (inactive) with HL-60; 26.2 µM (inactive) in the assay on HOP-62; 25 µM (inactive) in the assay with Hs-578T. The GI50 with K562 is 38.3 µM (inactive); with MDA-MB-435 it was 28.3 µM (inactive); with NCI-H23 it was 30.1 µM (inactive); in the assay on NCI-H460, 48.3 µM (inactive); in the assay with NCI/ADR-RES, 22.2 µM (inactive); in the assay with OVCAR-3, 29.9 µM (inactive). For the same compound, the GI50 in the assay on SN12C was 30.8 µM (inactive); in the assay on SR, 22.8 µM (inactive); in the assay with T47D, 15.2 µM (inactive); with TK-10, 21.6 µM (inactive); with U-251, 28.8 µM (inactive); in the assay on UACC-257, 49.5 µM (inactive).

With `O=S(=O)(O)c1ccc(NN(c2c(O)ccc3ccccc23)S(=O)(=O)O)cc1`, the GI50 in the assay on A549, in the assay with CCRF-CEM, in the assay on EKVX, in the assay on HL-60, in the assay on HOP-62 and in the assay with Hs-578T was > 100 µM (inactive) in each case. The GI50 with K562, in the assay on MDA-MB-435, in the assay with NCI-H23, with NCI-H460, in the assay with NCI/ADR-RES and with OVCAR-3 was > 100 µM (inactive) throughout. Also, the GI50 in the assay on SN12C, in the assay on SR, in the assay with T47D, with TK-10, in the assay on U-251 and in the assay on UACC-257 was > 100 µM (inactive) each time.

`CC(OC(C)(C)C)C1NC(=O)C(CCCCNC(=O)OC(C)(C)C)NC(=O)C(Cc2c[nH]c3ccccc23)NC(=O)C(Cc2ccccc2)NC(=O)C2(CCCC2)NC(=O)C(Cc2ccccc2)NC1=O` (stereo not drawn) (cyclo([Ac5c]FWK(Boc)T(tBu)F); configuration not given here): the GI50 is 28.2 µM (inactive) in the assay with CCRF-CEM; 41.5 µM (inactive) in the assay on EKVX; 17.5 µM (inactive) in the assay with HL-60; 49.4 µM (inactive) in the assay with HOP-62; 33.3 µM (inactive) in the assay on Hs-578T; 27.8 µM (inactive) in the assay with K562. The GI50 was 14.7 µM (inactive) with MDA-MB-435; 36.9 µM (inactive) in the assay with NCI-H23; 36.7 µM (inactive) in the assay on NCI-H460; > 100 µM (inactive) in the assay with NCI/ADR-RES; 26 µM (inactive) in the assay on OVCAR-3; 29.9 µM (inactive) in the assay on SN12C. Also, the GI50 with SR is 32.2 µM (inactive); in the assay with T47D it was 10.4 µM (inactive); in the assay with TK-10, 24.8 µM (inactive); in the assay on U-251, 15.8 µM (inactive); in the assay on UACC-257, 20.7 µM (inactive).

Consider `CC1=NN(c2nc(N)nc(CS(C)(=O)=O)n2)C(C)(C)C1`, for which the GI50 in the assay with CCRF-CEM, in the assay with EKVX, with HL-60, in the assay with HOP-62, in the assay with Hs-578T and in the assay on K562 was > 100 µM (inactive) each time. The GI50 in the assay with MDA-MB-435, in the assay on NCI-H23, in the assay on NCI-H460, in the assay with NCI/ADR-RES, in the assay with SNB-75 and in the assay with SR was > 100 µM (inactive) in each case. For the same compound, the GI50 in the assay with T47D, in the assay with TK-10, with U-251 and in the assay with UACC-257 was > 100 µM (inactive) in each case.

Take `CSC1=C(SC)SC(=C2SC3=C(SC(=C4SCCS4)S3)S2)S1`: the GI50 with A549, with CCRF-CEM, in the assay with EKVX, with HL-60, with HOP-62 and in the assay with Hs-578T was > 100 µM (inactive) each time. In addition, the GI50 in the assay with MDA-MB-435, with NCI-H23, in the assay on NCI-H460, in the assay on NCI/ADR-RES, with OVCAR-3 and in the assay with SN12C was > 100 µM (inactive) in each case. In addition, the GI50 in the assay with SNB-75, in the assay on SR, with T47D, in the assay on TK-10, in the assay with U-251 and in the assay on UACC-257 was > 100 µM (inactive) throughout.
